Results: US20110118304A1, “METHOD FOR TREATING OVER-EATING DISORDERS” (NeuroSearch A/S, priority 2007, published 2011)

Tested on: Diet-Induced Obese Rats
Test: Effect of tesofensine on food-intake in diet-induced obese rats
Format: in vivo, male Sprague-Dawley rats
Details: single subcutaneous injection of 1,5 mg/kg at lights out; diet-induced obese rats on high-fat diet; versus vehicle (saline); FIG. 1
Description: These rats were from 3-5 weeks of age only given access to a high-fat diet (#12266B; 31.8% kcal from fat, energy density […], Research Diets, New Jersey). After 17 weeks on high-fat diet, animals were stratified according to body weight. Tesofensine was injected in different doses to male Sprague-Dawley rats. Vehicle (saline), or tesofensine at different doses (from 0,5 mg/kg to 2,0 mg/kg) was administered as a single subcutaneous injection at lights out. The level of food-intake was continuously determined over the next 18 hours in an automated food-delivering system.
In FIG. 1, the level of food-intake over night is illustrated of two groups of animals; receiving either a single dose of 1,5 mg/kg tesofensine (triangles) or vehicle (squares).
In FIG. 2, a relation between increasing doses of tesofensine and the accumulated food-intake over a 18 h observation is shown.

SMILES: CCOC[C@@H]1[C@@H](c2ccc(Cl)c(Cl)c2)C[C@@H]2CC[C@H]1N2C [tesofensine, (1R,2R,3S,5S)-3-(3,4-dichlorophenyl)-2-(ethoxymethyl)-8-methyl-8-azabicyclo[3.2.1]octane]
- level of food-intake over night: inhibits food intake over night
